Experimental data: ChEMBL document CHEMBL1132223, “Quantitative structure-activity relationship of human neutrophil collagenase (MMP-8) inhibitors using comparative molecular field analysis and X-ray structure analysis” (J Med Chem, 1999)

Biological target: Neutrophil collagenase (Homo sapiens, UniProt P22894)
Experiment: Inhibition of human neutrophil collagenase [Matrix Metalloprotease-8, MMP-8]

Sequence of Neutrophil collagenase (P22894 whole entry): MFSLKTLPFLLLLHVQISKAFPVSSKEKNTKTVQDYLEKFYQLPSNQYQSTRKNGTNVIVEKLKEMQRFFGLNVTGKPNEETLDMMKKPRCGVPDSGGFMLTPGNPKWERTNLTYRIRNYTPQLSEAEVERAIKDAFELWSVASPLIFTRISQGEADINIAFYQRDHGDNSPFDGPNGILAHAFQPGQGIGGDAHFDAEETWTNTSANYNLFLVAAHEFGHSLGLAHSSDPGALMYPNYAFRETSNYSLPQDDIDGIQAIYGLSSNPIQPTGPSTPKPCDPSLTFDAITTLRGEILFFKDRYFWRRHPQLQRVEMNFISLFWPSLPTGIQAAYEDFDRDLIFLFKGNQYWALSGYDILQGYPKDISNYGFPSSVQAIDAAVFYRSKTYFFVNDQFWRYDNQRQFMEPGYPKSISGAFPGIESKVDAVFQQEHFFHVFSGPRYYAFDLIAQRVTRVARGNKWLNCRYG

IC50	SMILES
10 nM	COc1ccc(S(=O)(=O)N2Cc3cc(NC(=O)[C@H](CC(=O)OC(C)(C)C)NC(=O)OCc4ccccc4)ccc3C[C@H]2C(=O)NO)cc1
40 nM	CNC(=O)c1ccc(Oc2ccc(S(=O)(=O)N3Cc4ccccc4C[C@@H]3C(=O)C(=O)O)cc2)cc1
3000 nM	O=C(NO)[C@H]1Cc2ccccc2CN1S(=O)(=O)Cc1ccccc1
1000 nM	COc1ccc(S(=O)(=O)N2Cc3ccccc3C[C@H]2C(=O)NO)cc1
600 nM	O=C(O)C(=O)[C@H]1Cc2ccccc2CN1S(=O)(=O)c1ccc(-c2ccon2)s1
10000 nM	COc1ccc(S(=O)(=O)N2Cc3ncn(C)c3C[C@@H]2C(=O)O)cc1
50 nM	O=C(NO)[C@H]1Cc2ccccc2CN1S(=O)(=O)c1ccc(C(F)(F)F)cc1
2 nM	O=C(NO)[C@H]1Cc2ccccc2CN1S(=O)(=O)c1ccc(-c2ccccc2)cc1
1 nM	COc1ccc(S(=O)(=O)N2Cc3cc(O)ccc3C[C@@H]2C(=O)NO)cc1
5 nM	O=C(O)C(=O)[C@H]1Cc2ccccc2CN1S(=O)(=O)c1ccc(-c2ccc(Cl)cc2)cc1
10 nM	CC(C)(C)OC(=O)Nc1ccc2c(c1)CN(S(=O)(=O)c1ccc(-c3ccc(F)cc3)cc1)[C@@H](C(=O)NO)C2
8 nM	O=C(NO)[C@H]1Cc2ccccc2CN1S(=O)(=O)c1ccc(-c2ccon2)s1
1000 nM	CSc1nccc(-c2ccc(S(=O)(=O)N3Cc4ccccc4C[C@@H]3C(=O)C(=O)O)s2)n1
30 nM	CCOC(=O)Nc1ccc(S(=O)(=O)N2Cc3ccccc3C[C@@H]2C(=O)NO)cc1
80 nM	O=C(O)C(=O)[C@H]1Cc2ccccc2CN1S(=O)(=O)c1ccc(-c2nc3ccccc3o2)cc1
3 nM	O=C(NO)[C@H]1Cc2ccccc2CN1S(=O)(=O)c1ccc(-c2ccc(Cl)cc2)cc1
30 nM	CN(C)c1ccc(Oc2ccc(S(=O)(=O)N3Cc4ccccc4C[C@@H]3C(=O)C(=O)O)cc2)cc1
1 nM	CN(C)c1ccc(-c2ccc(S(=O)(=O)N3Cc4ccccc4C[C@@H]3C(=O)C(=O)O)cc2)cc1
800 nM	O=C(NCc1csc(S(=O)(=O)N2Cc3ccccc3C[C@@H]2C(=O)NO)c1)c1ccccc1
40 nM	O=C(O)C(=O)[C@H]1Cc2ccc([N+](=O)[O-])cc2CN1S(=O)(=O)c1ccc(-c2ccc(F)cc2)cc1
200 nM	COc1ccc(OC(=O)Nc2cccc(S(=O)(=O)N3Cc4ccccc4C[C@@H]3C(=O)NO)c2)cc1
30 nM	O=C(NO)[C@H]1Cc2ccccc2CN1S(=O)(=O)CCc1ccncc1
20 nM	O=C(O)C(=O)[C@H]1Cc2ccccc2CN1S(=O)(=O)CCc1ccc(-c2ccccc2)cc1
10 nM	N#Cc1ccc(Oc2ccc(S(=O)(=O)N3Cc4ccccc4C[C@@H]3C(=O)C(=O)O)cc2)cc1
2 nM	COc1ccc(S(=O)(=O)N2Cc3cc(NC(=O)[C@H](C)NC(=O)OC(C)(C)C)ccc3C[C@H]2C(=O)NO)cc1
30 nM	CC(C)(C)OC(=O)Nc1ccc2c(c1)C[C@H](C(=O)C(=O)O)N(S(=O)(=O)c1ccc(-c3ccc(F)cc3)cc1)C2
8 nM	COc1ccc(S(=O)(=O)N2Cc3cc([N+](=O)[O-])ccc3C[C@@H]2C(=O)NO)cc1

IC50	SMILES
100 nM	CC(=O)Nc1ccc(S(=O)(=O)N2Cc3ccccc3C[C@@H]2C(=O)NO)cc1
60 nM	O=C(O)C(=O)[C@H]1Cc2ccccc2CN1S(=O)(=O)c1ccc(/C=C/c2ccccc2)cc1
90 nM	O=C(O)C(=O)[C@H]1Cc2ccccc2CN1S(=O)(=O)c1ccc(-n2nccn2)cc1
20 nM	O=C(O)C(=O)[C@H]1Cc2cc([N+](=O)[O-])ccc2CN1S(=O)(=O)c1ccc(-c2ccc(Cl)cc2)cc1
70 nM	O=C(NO)[C@H]1Cc2ccccc2CN1S(=O)(=O)c1ccc2ccccc2c1
20 nM	CSc1nccc(-c2ccc(S(=O)(=O)N3Cc4ccccc4C[C@@H]3C(=O)NO)s2)n1
500 nM	O=C(O)C(=O)[C@H]1Cc2ccccc2CN1S(=O)(=O)c1ccc2oc3ccccc3c2c1
2 nM	Nc1ccc2c(c1)CN(S(=O)(=O)c1ccc(-c3ccc(F)cc3)cc1)[C@@H](C(=O)NO)C2
2 nM	O=C(NO)[C@H]1Cc2ccccc2CN1S(=O)(=O)Cc1ccc(-c2ccccn2)s1
40 nM	COc1ccc(S(=O)(=O)N2Cc3cc(NC(=O)CCC(=O)O)ccc3C[C@@H]2C(=O)NO)cc1
2000 nM	COc1ccc(S(=O)(=O)N2Cc3cc(NC(=O)[C@H](C)N)ccc3C[C@H]2C(=O)C(=O)O)cc1
200 nM	O=C(Nc1cccc(S(=O)(=O)N2Cc3ccccc3C[C@@H]2C(=O)NO)c1)c1ccccc1O
80 nM	COC(=O)c1csc(S(=O)(=O)N2Cc3ccccc3C[C@@H]2C(=O)NO)c1OC
2 nM	CCCCOc1ccc(S(=O)(=O)N2Cc3ccccc3C[C@@H]2C(=O)NO)cc1
40 nM	O=C(NO)[C@H]1Cc2ccccc2CN1S(=O)(=O)c1ccc2[nH]c(-c3ccccc3)nc2c1
3000 nM	CCCCCCCCCCCCCCCCS(=O)(=O)N1Cc2ccccc2C[C@@H]1C(=O)NO
3 nM	COc1ccc(S(=O)(=O)N2Cc3ncn(C)c3C[C@@H]2C(=O)NO)cc1
7 nM	Nc1ccc2c(c1)CN(S(=O)(=O)c1ccc(-c3ccc(Cl)cc3)cc1)[C@@H](C(=O)C(=O)O)C2
2 nM	O=C(NO)[C@H]1Cc2ccccc2CN1S(=O)(=O)c1ccc(OCc2ccc(F)cc2)cc1
2 nM	CN(C)c1ccc(-c2ccc(S(=O)(=O)N3Cc4ccccc4C[C@@H]3C(=O)NO)cc2)cc1
500 nM	O=C(NO)[C@H]1Cc2ccccc2CN1S(=O)(=O)c1cc(Br)c(Br)s1
2000 nM	O=C(NO)[C@H]1Cc2ccccc2CN1S(=O)(=O)c1cc(S(=O)(=O)c2ccccc2)cs1
100 nM	O=C(NO)[C@H]1Cc2ccccc2CN1S(=O)(=O)c1ccc(N2CCOCC2)cc1
3 nM	COc1ccc(S(=O)(=O)N2Cc3cc(NC(=O)OC(C)(C)C)ccc3C[C@@H]2C(=O)NO)cc1
4 nM	COc1ccc(S(=O)(=O)N2Cc3ccccc3C[C@@H]2C(=O)NO)cc1
2000 nM	COc1ccc(S(=O)(=O)N2Cc3cc(N)ccc3C[C@@H]2C(=O)C(=O)O)cc1
3000 nM	O=C(O)C(=O)C1Cc2ccccc2CN1S(=O)(=O)c1ccc(-c2ccc(Cl)cc2)cc1 (single isomer, unassigned)
